Data published in paper PMC4102417 (PLoS Neglected Tropical Diseases, 2014).
Structures can show the parent of a compound that is named as a salt. Where two headings read alike, the source gives them in different places.

Columns and labels:
[1] = test system: T. cruzi (Tulahuen strain); assay: microbe, parasite or virus in culture; assay type: cell-based, Trypanosoma cruzi; details: for activity at 10 µM: 120 h, read-out: T. cruzi % growth @ 10 uM (Amastigotes)
Experimental: Compounds were tested against T. cruzi (Tulahuen strain) stably expressing the beta-galactosidase gene as previously described. […] Fibroblasts were plated at a density of 2×10^3 per well in 96 well tissue culture plates. After 24 hours of incubation, 1×10^4 trypomastigotes/well were added to the fibroblasts and incubated for 4 hours before addition of the test compounds from the Spectrum Collection (10 µM final concentration). Cultures were incubated at 37°C for 5 days, then developed with chlorophenol red β-D-galactopyranoside as previously described. The percent inhibition is reported with standard deviation of the mean. […] Z-prime values were calculated for each 96-well plate based on positive (4 wells) and negative controls (4 wells).

3T3 fibroblast cells = assay: cells; assay type: cell-based, murine; details: for activity at 10 µM: Mus musculus, NIH3T3, 72 h, read-out: Mammalian (3T3) cell % growth at 10 uM
[2] = Trypanosoma cruzi, TULAHUEN, Fibroblast, 10 uM, Table S2

Row | Compound | activity at 10 µM [1, 2] [%] | activity at 10 µM (3T3 fibroblast cells; 10 uM, Table S2) [%] | also measured
1 | CC(C)CC1C(=O)N2CCCC2C2(O)OC(NC(=O)C3C=C4c5cccc6[nH]c(Br)c(c56)CC4N(C)C3)(C(C)C)C(=O)N12 (stereo not shown) [BROMOCRIPTINE MESYLATE, 10-bromo-N-[2-hydroxy-7-(2-methylpropyl)-5,8-dioxo-4-(propan-2-yl)-3-oxa-6,9-diazatricyclo[7.3.0.0^{2,6}]dodecan-4-yl]-6-methyl-6,11-diazatetracyclo[7.6.1.0^{2,7}.0^{12,16}]hexadeca-1(15),2,9,12(16),13-pentaene-4-carboxamide; methanesulfonic acid] | 2 | 92.1 | –
2 | CCC1(O)C(=O)OCc2c1cc1n(c2=O)Cc2cc3ccccc3nc2-1 (stereo not shown) [CAMPTOTHECIN, 19-ethyl-19-hydroxy-17-oxa-3,13-diazapentacyclo[11.8.0.0^{2,11}.0^{4,9}.0^{15,20}]henicosa-1(21),2,4(9),5,7,10,15(20)-heptaene-14,18-dione] | 3.9 | – | activity at 10 µM (3T3 fibroblast cells): 94.3%
3 | CC(=O)OC1(C(C)=O)CCC2C3C=C(Cl)C4=CC(=O)CCC4(C)C3CCC21C (stereo not shown) [CHLORMADINONE ACETATE, 14-acetyl-8-chloro-2,15-dimethyl-5-oxotetracyclo[8.7.0.0^{2,7}.0^{11,15}]heptadeca-6,8-dien-14-yl acetate] | 9.7 | 97.4 | –
4 | CN(C)CCCN1c2ccccc2Sc2ccc(Cl)cc21 [CHLORPROMAZINE, [3-(2-chloro-10H-phenothiazin-10-yl)propyl]dimethylamine] | 14.2 | 99.3 | –
5 | COC(=O)CCC(C)C1CCC2C3C(O)CC4CC(O)CCC4(C)C3CC(O)C12C (stereo not shown) [CHOLIC ACID, METHYL ESTER, methyl 4-{5,9,16-trihydroxy-2,15-dimethyltetracyclo[8.7.0.0^{2,7}.0^{11,15}]heptadecan-14-yl}pentanoate] | 22.6 | 81 | –
6 | CCN(CC)CCOc1ccc(C(=C(Cl)c2ccccc2)c2ccccc2)cc1 [CLOMIPHENE, {2-[4-(2-chloro-1,2-diphenylethenyl)phenoxy]ethyl}diethylamine] | 12.9 | 100 | –
7 | Clc1ccccc1C(c1ccccc1)(c1ccccc1)n1ccnc1 [CLOTRIMAZOLE, 1-[(2-chlorophenyl)diphenylmethyl]-1H-imidazole] | 10.2 | 100 | –
8 | CC(=O)OC[C@H]1O[C@@H](Oc2cc(OC(C)=O)c3c(=O)cc(-c4ccc(OC(C)=O)cc4)oc3c2)[C@H](OC(C)=O)[C@@H](OC(C)=O)[C@@H]1OC(C)=O [COSMOSIIN HEXAACETATE] | 12.9 | 100 | –
9 | C=C1C(=O)OC2CC1C(OC(C)=O)CC(C)=CCCC(C)=CCCC2(C)O (stereo not shown) [CRASSIN ACETATE, 12-hydroxy-4,8,12-trimethyl-16-methylidene-15-oxo-14-oxabicyclo[11.3.1]heptadeca-4,8-dien-2-yl acetate] | – | – | activity at 10 µM ([1]; Trypanosoma cruzi, TULAHUEN, Fibroblast, 10 uM, Table S1): 0.2%; activity at 10 µM (3T3 fibroblast cells; 10 uM, Table S1): 2.5%
10 | CC1COC2=C1C(=O)C(=O)c1c2ccc2c1CCCC2(C)C (stereo not shown) [CRYPTOTANSHINONE, 6,6,14-trimethyl-12-oxatetracyclo[8.7.0.0^{2,7}.0^{11,15}]heptadeca-1(10),2(7),8,11(15)-tetraene-16,17-dione] | 4.5 | 87 | –
11 | C=CC(C1=CC(=O)C=CC1=O)c1ccccc1 (stereo not shown) [DALBERGIONE, 2-(1-phenylprop-2-en-1-yl)cyclohexa-2,5-diene-1,4-dione] | 12.4 | 97.5 | –
12 | C=CC(C1=CC(=O)C(OC)=CC1=O)c1ccc(O)cc1 (stereo not shown) [DALBERGIONE, 4-METHOXY-4'-HYDROXY-, 2-[1-(4-hydroxyphenyl)prop-2-en-1-yl]-5-methoxycyclohexa-2,5-diene-1,4-dione] | 5.1 | 94.8 | –
13 | C#C[C@]1(O)CC[C@H]2[C@@H]3CCC4=Cc5oncc5C[C@]4(C)[C@H]3CC[C@@]21C [DANAZOL, (1S,2R,13R,14S,17R,18S)-17-ethynyl-2,18-dimethyl-7-oxa-6-azapentacyclo[11.7.0.0^{2,10}.0^{4,8}.0^{14,18}]icosa-4(8),5,9-trien-17-ol] | 0.9 | 90.2 | EC50 ([1]; Trypanosoma cruzi, TULAHUEN, Fibroblast, Table S2, amastigotes, read-out: T. cruzi EC50): 6.97 µM
14 | CC1(C)C=CC(=O)C2(C)C1CC(=O)C1(C)C2CCC2(C)C(c3ccoc3)OC(=O)C3OC321 (stereo not shown) [DEACETOXY-7-OXISOGEDUNIN, 7-(furan-3-yl)-1,8,12,16,16-pentamethyl-3,6-dioxapentacyclo[9.8.0.0^{2,4}.0^{2,8}.0^{12,17}]nonadec-14-ene-5,13,19-trione] | 3.9 | 100 | –
15 | CC1(C)C(=O)C=CC2(C)C1CC(=O)C1(C)C2CCC2(C)C(c3ccoc3)OC(=O)C3OC321 (stereo not shown) [DEACETOXY-7-OXOGEDUNIN, 7-(furan-3-yl)-1,8,12,16,16-pentamethyl-3,6-dioxapentacyclo[9.8.0.0^{2,4}.0^{2,8}.0^{12,17}]nonadec-13-ene-5,15,19-trione] | 4.9 | 75.8 | –
16 | CC1(C)C(=O)C=CC2(C)C1CC(O)C1(C)C2CCC2(C)C(c3ccoc3)OC(=O)C3OC321 (stereo not shown) [DEACETYLGEDUNIN, 7-(furan-3-yl)-19-hydroxy-1,8,12,16,16-pentamethyl-3,6-dioxapentacyclo[9.8.0.0^{2,4}.0^{2,8}.0^{12,17}]nonadec-13-ene-5,15-dione] | 4.4 | 76 | –
17 | CC1(C)C2CC(=O)O[C@@]3(C)C4=CC(=O)O[C@@H](c5ccoc5)[C@]4(C)CCC3[C@@]2(C)C=C[C@H]1O (stereo partly shown) [DEOX[…]] | 13.2 | 82.7 | –
18 | CC(C)=CCc1c(O)cc2occ(-c3ccc4c(c3)OCO4)c(=O)c2c1O [DERRUBONE] | 22.8 | 75.4 | –
19 | CC(=O)O[C@@H]1CC2C(C)(C)C(=O)CC[C@]2(C)C2CC[C@]3(C)C(=CC(=O)O[C@H]3c3ccoc3)[C@@]21C (stereo partly shown) [DIHYDRODEOXYGEDUNIN] | – | – | T. cruzi % growth @ 10 uM (Amastigotes) ([1]; 10 uM, Table S2): 23.4%; Mammalian (3T3) cell % growth at 10 uM (3T3 fibroblast cells; 10 uM, Table S2): 83.8%
20 | CC(=O)OC1CC2C(C)(C)C(=O)CCC2(C)C2CCC3(C)C(c4ccoc4)OC(=O)C4OC43C12C (stereo not shown) [DIHYDROGEDUNIN, 7-(furan-3-yl)-1,8,12,16,16-pentamethyl-5,15-dioxo-3,6-dioxapentacyclo[9.8.0.0^{2,4}.0^{2,8}.0^{12,17}]nonadecan-19-yl acetate] | 5.8 | 81.4 | –
21 | COc1c(CC(=O)c2cc3c(cc2O)OC(C)(C)C(O)C3)ccc2c1C=CC(C)(C)O2 (stereo not shown) [DIHYDROMUNDULETONE] | 4.4 | 81.3 | –
22 | CC(=O)OC1c2c(ccc3ccc(=O)oc23)OC(C)(C)C1OC(=O)CC(C)C (stereo not shown) [DIHYDROSAMIDIN, 14-(acetyloxy)-12,12-dimethyl-4-oxo-3,11-dioxatricyclo[8.4.0.0^{2,7}]tetradeca-1(10),2(7),5,8-tetraen-13-yl 3-methylbutanoate] | 10.9 | 81.2 | –
23 | Cc1cccc2c3c(ccc12)C1=C(C(=O)C3=O)C(C)CO1 (stereo not shown) [DIHYDROTANSHINONE I, 6,14-dimethyl-12-oxatetracyclo[8.7.0.0^{2,7}.0^{11,15}]heptadeca-1(10),2(7),3,5,8,11(15)-hexaene-16,17-dione] | 4.8 | 77.1 | –
24 | Clc1ccc(COC(Cn2ccnc2)c2ccc(Cl)cc2Cl)cc1 (stereo not shown) [ECONAZOLE, 1-{2-[(4-chlorophenyl)methoxy]-2-(2,4-dichlorophenyl)ethyl}-1H-imidazole] | 2.4 | 100 | –
